Measured values reported in PubChem BioAssay AID1963428 (Molecular Pharmacology Branch, DTP, NCI, 2024).

System: 171881-019-R-J1-PDC complex spheroid growth, % test/control
Assay: Anticancer human tumor 171881-019-R-J1-PDC patient-derived invasive breast carcinoma cell line growth inhibition [Asc]
Conditions: for IC50: curve of first compound; for viability, T/C: stronger effect = lower value; active = viability on the fitted dose curve at most 10% of control; inactive = the rest
Summary of the method: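 Tumor cells were grown as complex spheroids with human endothelial cells (HUVEC) and human mesenchymal stem cells as stroma. Agents were tested alone and in combination, in half-log steps down from the clinical Cmax, or from 10 microM where Cmax was unknown.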

[1] = second compound 0.1 µM, first compound 0.00316 µM
[2] = second compound 0.1 µM, first compound 0.01 µM
[3] = second compound 0.1 µM, first compound 0.0316 µM
[4] = second compound 0.1 µM, first compound 0.1 µM
[5] = second compound 0.316 µM, first compound 0.00316 µM
[6] = second compound 0.316 µM, first compound 0.01 µM
[7] = second compound 0.316 µM, first compound 0.0316 µM
[8] = second compound 0.316 µM, first compound 0.1 µM
[9] = second compound 1 µM, first compound 0.00316 µM
[10] = second compound 1 µM, first compound 0.01 µM
[11] = second compound 1 µM, first compound 0.0316 µM
[12] = second compound 1 µM, first compound 0.1 µM
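Throughout, for viability, T/C: spheroids exposed to compounds for 7 days.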

CCN1CCN(Cc2ccc(Nc3ncc(F)c(-c4cc(F)c5nc(C)n(C(C)C)c5c4)n3)nc2)CC1 + CNC(C)C(=O)NC1CN(S(=O)(=O)c2cccc(S(=O)(=O)N3CCC4CCC(C(=O)NC(c5ccccc5)c5ccccc5)N4C(=O)C(NC(=O)C(C)NC)C3)c2)CCC2CCC(C(=O)NC(c3ccccc3)c3ccccc3)N2C1=O
> 1000 nM: IC50 (second compound 0.01 µM) | IC50 (second compound 0.0316 µM) | IC50 (second compound 0.1 µM) | IC50 (second compound 0.316 µM) | IC50 (second compound 1 µM)
inactive: viability, T/C (second compound 0.01 µM, first compound 0.00316 µM) 94.1% | viability, T/C (second compound 0.01 µM, first compound 0.01 µM) 102% | viability, T/C (second compound 0.01 µM, first compound 0.0316 µM) 102% | viability, T/C (second compound 0.01 µM, first compound 0.1 µM) 113% | viability, T/C (second compound 0.01 µM, first compound 0.316 µM) 131% | viability, T/C (second compound 0.01 µM, first compound 1 µM) 147% | viability, T/C (second compound 0.0316 µM, first compound 0.00316 µM) 89.7% | viability, T/C (second compound 0.0316 µM, first compound 0.01 µM) 97.9% | viability, T/C (second compound 0.0316 µM, first compound 0.0316 µM) 112% | viability, T/C (second compound 0.0316 µM, first compound 0.1 µM) 124% | viability, T/C (second compound 0.0316 µM, first compound 0.316 µM) 149% | viability, T/C (second compound 0.0316 µM, first compound 1 µM) 143% | viability, T/C [1] 112% | viability, T/C [2] 107% | viability, T/C [3] 117% | viability, T/C [4] 128% | viability, T/C (second compound 0.1 µM, first compound 0.316 µM) 143% | viability, T/C (second compound 0.1 µM, first compound 1 µM) 174% | viability, T/C [5] 101% | viability, T/C [6] 110% | viability, T/C [7] 121% | viability, T/C [8] 130% | viability, T/C (second compound 0.316 µM, first compound 0.316 µM) 142% | viability, T/C (second compound 0.316 µM, first compound 1 µM) 143% | viability, T/C [9] 89.7% | viability, T/C [10] 110% | viability, T/C [11] 117% | viability, T/C [12] 139% | viability, T/C (second compound 1 µM, first compound 0.316 µM) 131% | viability, T/C (second compound 1 µM, first compound 1 µM) 146%

Cn1ncnc1[C@H]1c2n[nH]c(=O)c3cc(F)cc(c23)N[C@@H]1c1ccc(F)cc1 + Cc1c(S(C)(=O)=O)c(-c2cc(F)cc(N3CCN(c4ccc(NS(=O)(=O)c5ccc(NC(CCN6CCC(C(=O)OCCCP(=O)(O)O)CC6)CSc6ccccc6)c(S(=O)(=O)C(F)(F)F)c5)cc4)CC3)c2)c(-c2ccc(Cl)cc2)n1C(C)C
inactive: viability, T/C (second compound 0.1 µM, first compound 0.000316 µM) 86.8% | viability, T/C (second compound 0.1 µM, first compound 0.001 µM) 108% | viability, T/C [1] 103% | viability, T/C [2] 115% | viability, T/C [3] 108% | viability, T/C [4] 100% | viability, T/C (second compound 0.316 µM, first compound 0.000316 µM) 111% | viability, T/C (second compound 0.316 µM, first compound 0.001 µM) 130% | viability, T/C [5] 107% | viability, T/C [6] 120% | viability, T/C [7] 129% | viability, T/C [8] 129% | viability, T/C (second compound 1 µM, first compound 0.000316 µM) 136% | viability, T/C (second compound 1 µM, first compound 0.001 µM) 145% | viability, T/C [9] 123% | viability, T/C [10] 159% | viability, T/C [11] 143% | viability, T/C [12] 192% | viability, T/C (second compound 3.16 µM, first compound 0.000316 µM) 168% | viability, T/C (second compound 3.16 µM, first compound 0.001 µM) 155% | viability, T/C (second compound 3.16 µM, first compound 0.00316 µM) 186% | viability, T/C (second compound 3.16 µM, first compound 0.01 µM) 178% | viability, T/C (second compound 3.16 µM, first compound 0.0316 µM) 192% | viability, T/C (second compound 3.16 µM, first compound 0.1 µM) 173% | viability, T/C (second compound 10 µM, first compound 0.000316 µM) 210% | viability, T/C (second compound 10 µM, first compound 0.001 µM) 203% | viability, T/C (second compound 10 µM, first compound 0.00316 µM) 214% | viability, T/C (second compound 10 µM, first compound 0.01 µM) 208% | viability, T/C (second compound 10 µM, first compound 0.0316 µM) 192% | viability, T/C (second compound 10 µM, first compound 0.1 µM) 181%
> 100 nM: IC50 (second compound 0.1 µM) | IC50 (second compound 0.316 µM) | IC50 (second compound 1 µM) | IC50 (second compound 3.16 µM) | IC50 (second compound 10 µM)
